# Measurements as given in US20040214897A1, “Uses for 2-amino-2-propane-1,3-diols” (priority 2001, published 2004).
# Legend:
# yeast cells = settings: cited from earlier work
# [1] = tested on: peripheral blood lymphocytes (PBL); settings: background statement; cited from earlier work
# [2] = tested on: yeast strains JK9-3dα, MH272-1da and MH272-1da/α; assay: Yeast growth on media containing the compound, compared with medium without compound; format: cell-based, Saccharomyces Cerevisie; settings: for antifungal activity on Saccharomyces Cerevisie: general statement
# Experimental: (§1) The compound, e.g. FTY720, is dissolved in distilled water to be 10 mM, the resulting stock solution is kept at 4° C. and diluted to the appropriated concentrations with medium used for yeast culture. Standard laboratory yeast strain in this case derivatives of JK9-3d (a, alpha and diploid) are plated on to media containing the varying concentrations of the compound to be tested and their growth are compared to that in medium without the compound. Cultivation and maintenance of cells are carried out in YEPD medium (Difco) or synthetic medium (SD). The growth of both yeast strains JK9-3dα, MH272-1da and MH272-1da/α is inhibited by a compound of formula I, e.g. FTY720, at 30 μM in the YPED solid medium at 30° C. or in minimal medium at 19° C.
# several yeast strains = settings: background statement; cited from earlier work
# Rsp5 mutant yeast = assay: Sensitivity of Rsp5 mutant to FTY720; format: cell-based, Saccharomyces Cerevisie; settings: 30 μM
# Experimental: as §1, with “(SD).” for “(SD). The growth of both yeast strains JK9-3dα, MH272-1da and MH272-1da/α is inhibited by a compound of formula I, e.g. FTY720, at 30 μM in the YPED solid medium at 30° C. or in minimal medium at 19° C.”
# In order to clarify the role of the ubiquitin pathway in FTY720 action, the sensitivity of Rsp5 (Bul1 binding ubiquitin ligase) mutant to FTY720 is tested. Rsp5 mutant, in which Rsp5 expression level is reduced to less than 10% of wild-type due to the Ty1 transposed insertion in the promoter, is used in this study, since the complete disruption of Rsp5 gene is lethal. This Rsp5 mutant is resistant to 30 μM of FTY720 like Bul1 disrupted-yeast.
# [3] = tested on: prototrophic derivatives of JK9-3dα; assay: Growth sensitivity of prototrophic derivatives of JK9-3dα to FTY720; format: cell-based, Saccharomyces Cerevisie
# Experimental: as §1, with “(SD).” for “(SD). The growth of both yeast strains JK9-3dα, MH272-1da and MH272-1da/α is inhibited by a compound of formula I, e.g. FTY720, at 30 μM in the YPED solid medium at 30° C. or in minimal medium at 19° C.”
# If so, yeast that are able to synthesize amino acids might have a growth advantage in the presence of FTY720 compared with isogenic auxotrophic yeast that require amino acid import from the medium to grow. Therefore, the influence of nutrient auxotrophies present in JK9-3dα (trp1 his4 leu2 ura3), which are used to identify target molecules of FTY720, on the sensitivity to this compound is tested. In contrast to the parental auxotrophic strain, fully prototrophic TRP1 HIS4 LEU2 URA3 derivative of JK9-3dα is resistant to 30 μM of FTY720. […] It therefore seems that the molecular targets and pathways other than that of 30 μM are involved in the effects of 100 μM of FTY720. Then, in order to identify which nutrient transport is inhibited by 30 μM of FTY720, prototrophic strain for each nutrient are constructed in JK9-3dα.
# JK9-3dα transformants = assay: FTY720 resistance of JK9-3dα transformants carrying plasmid-borne genes; format: cell-based, Saccharomyces Cerevisie
# Text: If the growth sensitivity of these yeast strains is due to inhibition of specific functional protein targets in the cells, such inhibition could be relieved by overexpressing such a function through introduction of multiple genetic copies of such function. Accordingly the FTY720 sensitive strain JK9-3dα has been transformed with yeast genomic DNA libraries cloned in high copy plasmid (2 μm) URA3 selectable using Yeast Transformation System (Clontech). FTY720-resistant transformants are selected on synthetic medium lacking uracil in the presence of 30 μM of FTY720. The total number of URA3+transformants is >20,000. The first selection Is performed at 19° C. because even the parent yeast strain JK9-3dα is resistant to FTY720 in synthetic medium at 30° C. After the first selection for resistance, FTY720-resistant growth phenotype of transformants is reconfirmed by restreaking individual colonies on to medium with the compound. Plasmid which conferred resistance to FTY720 are recovered according to standard methods, amplified in E. coli and reintroduced into JK9-3da for the confirmation of FTY720 resistance. The DNA fragments which conferred FTY720 resistance are isolated to determine sequence of both terminii of insert DNA and the DNA sequence is compared with Saccharomyces Genome Database. Then, the responsible single genes for the FTY720 resistance are further identified from the DNA fragments due to their common presence in different fragments and by using specific restriction enzymes to subclone them into yeast plasmid vector as shorter fragments (Genes Vap1, UBP5, UBP11 and Caj1 are identified by this method).
# From each fragment or resistance plasmid, single responsible genes, which overcome the anti-fungal effects of this compound at the increased copy number, are identified by subcloning using restriction enzymes. One is amino acid transporter VAP1, the others are a putative deubiquitinating enzyme UBP11 and UBP5. The last one is CAJ1 (heat shock protein).
# The glutamine transporter GNP1 gene (38) is PCR amplified out of this fragment derived from the FTY720 resistant mutant or parent wild-type genomic DNA, then cloned into the same plasmid vector pRS416.
# JK9-3dα wild-type cells are transformed with the yeast genomic DNA library constructed from FTY720 resistant dominant mutant in the low-copy-number vector pRS416. FTY720-resistant transformants are selected in SD medium in the presence of 30 μM of FTY720 as mentioned above. Plasmid inserts are sequenced and gene is identified as GNP1.
# Bul1-disrupted yeast = assay: Sensitivity of gene-disrupted yeast strains to FTY720; format: cell-based, Saccharomyces Cerevisie
# Experimental: as §1, with “(SD).” for “(SD). The growth of both yeast strains JK9-3dα, MH272-1da and MH272-1da/α is inhibited by a compound of formula I, e.g. FTY720, at 30 μM in the YPED solid medium at 30° C. or in minimal medium at 19° C.”
# Only one genomic DNA fragment in pRS416 confers sensitivity to FTY720. This DNA contains 4 intact genes (NRC1, Bul1, RCE1, DSK2). […] Intact Bul1 gene in low-copy-number plasmid confers sensitvity to FTY720 in the resistant recessive mutants, implying that the mutation happens in Bul1 gene in the recessive mutant yeast.
molecule,measurement,setting,value
"CCCCCCCCCCCCCC[C@@H](O)[C@@H](O)[C@@H](N)CO [PHS, phytoshingosine]",tryptophan uptake,yeast cells,diminishes tryptophan uptake
"NC(CO)(CO)CCc1ccc(C(=O)CCCCc2ccccc2)cc1 [Compound Y, 2-amino-2-{2-[4-(1-oxo-5-phenylpentyl)phenyl]ethyl}propane-1,3-diol]",peripheral blood lymphocytes (PBL) in vivo,[1],rapid and marked reduction
same,antifungal activity on Saccharomyces Cerevisie,[2],exhibits an antifungal activity
cyclosporin A [CsA],growth of several yeast strains,several yeast strains,potently inhibit
"CCCCCCCCc1ccc(CCC(N)(CO)CO)cc1 [FTY720, 2-Amino-2-[2-(4-octylphenyl)ethyl]propane-1,3-diol]",sensitivity of Rsp5 mutant (Rsp5 expression less than 10% of wild-type),Rsp5 mutant yeast,resistant
same,peripheral blood lymphocytes (PBL) in vivo,[1],rapid and marked reduction
same,"growth of yeast strains JK9-3dα, MH272-1da and MH272-1da/α","[2]; 30 μM, YPED solid medium at 30° C. or minimal medium at 19° C.",inhibited
same,antifungal activity on Saccharomyces Cerevisie,[2],exhibits an antifungal activity
same,sensitivity of parent yeast strain JK9-3dα,[2]; synthetic medium at 30° C.,resistant
same,sensitivity of fully prototrophic TRP1 HIS4 LEU2 URA3 derivative of JK9-3dα,[3]; 30 μM,resistant
same,"sensitivity of single TRP1, HIS4, LEU2 or URA3 prototrophic strains","[3]; 30 μM, JK9-3dα background","Neither of each TRP1, HIS4, LEU2 or URA3 prototrophic strain is resistant"
same,sensitivity of strain with both TRP1 and LEU2,"[3]; 30 μM, JK9-3dα background",sufficient to confer resistance
same,sensitivity of prototrophic yeast,[3]; 100 μM,still sensitive
same,anti-fungal effect with wild type TAT2 gene in low-copy number-plasmid,JK9-3dα transformants,overcomes the anti-fungal effects
same,"growth-inhibitory effect with VAP1, UBP11, UBP5 or CAJ1 in high-copy-number plasmid","JK9-3dα transformants; 30 μM, JK9-3dα",overcome the growth-inhibitory effects
same,anti-fungal effect with mutant-derived GNP1 in low-copy-number plasmid,"JK9-3dα transformants; 30 μM, JK9-3dα transformants, pRS416",confers resistance
same,growth inhibition with multiple copies of VAP1,JK9-3dα transformants; 100 μM,fail to overcome the growth inhibition
same,anti-fungal effect with wild-type GNP1 gene in low-copy-number plasmid,"JK9-3dα transformants; JK9-3dα transformants, pRS416",not inhibited
same,anti-fungal effect with VAP1 (and TAP2) in low-copy-number plasmid,JK9-3dα transformants; genes from mutant-derived and wild-type genomic DNA libraries,confer FTY720 resistance
same,sensitivity of Bul1-disrupted yeast after introduction of Bul1 gene in low-copy-number plasmid pRS416,Bul1-disrupted yeast,reverses the phenotype from resistance to sensitivity
same,sensitivity of Bul1-disrupted yeast,Bul1-disrupted yeast; 30 μM,confers resistance
